In patent US12721810B2, “Aqueous ophthalmic solutions of phentolamine and medical uses thereof” (Opus Genetics, Inc., priority 2013, dated 2026):
Counter-ions that a name gives are not always drawn.

Assay: Stability on storage: HPLC assay for API, impurities and degradants (Examples 1-4)
Type: physicochemical
Conditions: period of 4 weeks, 2-8° C. to 60° C.
Protocol: (§1) The injection volume was 10 μL.
as §1

stability in water: degrades rapidly
SMILES: Cc1ccc(N(CC2=NCCN2)c2cccc(O)c2)cc1 [phentolamine mesylate]
